Bridge positions count the residues as written; N and C are the ends. Square brackets hold non-standard residues; d marks the D form. Primed or numbered codes have the meaning given here. Ends that are not written are not given here. * marks the point of attachment. Lys(N3) = [N-]=[N+]=NCCCC[C@H](N)C(=O)O; Ttds = NCCCOCCOCCOCCCNC(=O)CCC(=O)*; hCys = N[C@@H](CCS)C(=O)O; PEG4′ = not defined here
Tests used:
[1] = system: Human aortic endothelial cells; test: Human aortic endothelial cells grown 48 h on bare or peptide-coated nitinol disks; F-actin and CD31 fluorescence image analysis; assay type: cell-based; conditions: for CD31/Actin score: Example 2, FIG. 25, compared to bare metal disks or disks coated with PDA alone; for CD31 expression, Integrated Density / F-actin expression (cellular stress), Integrated Density: HAEC 48 h on coated nitinol disks; for CD31 expression, Integrated Density: anti-CD31 domain 1 antibody, compared to other modified disks and bare controls, FIGS. 2, 4, 5; for ratio between CD31 and F-actin expression: compared to bare metal and disks coated with PDA only, FIG. 6; for F-actin expression (cellular stress), Integrated Density: phalloidin staining, compared to bare metal, FIGS. 2, 3, 5
Protocol: Nitinol disks are left untouched (bare metal) or coated with a domain 1, domain 2 or domain 1 and 2 CD31 analog peptide. The tested peptide is grafted to the nitinol disk following a polydopamine, DBCO-PEG4-amine and azide CD31 derivative peptide using a sequential dip-coating layering procedure. After this step, all the disks are incubated with Human aortic endothelial cells for 48h. Disks are then rinsed and the cells are fixed in a formalin solution before staining. The staining is fulfilled using phalloidin coupled to AlexaFluor®488 dye (green fluorescence for Actin), DAPI is used for DNA staining and a domain 1 CD31 antibody coupled to APC is used for external Domain 1 staining. The cell adhesion and Actin/CD31 expression was evaluated by image analysis of the surface after staining.
In particular, as per FIG. 2 the bare or coated nitinol disks were placed at the bottom of culture wells. Primary Human Aortic Endothelial Cells (HAEC) were allowed to grow on the disks for a period of 48 h. The disks were thereafter rinsed with phosphate buffered saline, fixed in formalin, and processed for fluorescence microscopy. Disk-adherent cells were immersed in a solution comprising Hoechst 33342 (1 μg/ml, to stain the nuclei), phalloidin coupled to AlexaFluor®488 dye (0.5 μM, to stain F-actin fibers) and a monoclonal antibody directed against CD31 domain 1, coupled to allophycocyanin (to detect the presence and localization of intact CD31 at the cell surface) for 1 hour at 37° C., washed and mounted face down on glass bottom imaging chambers for imaging with an inverted fluorescence microscope.
Surface type is indicated on the Y axis, data are expressed as average±SD (N=6/surface type). Each dot corresponds to a specific surface modification. The F-actin expression relates the cellular stress of the cell in presence of the exogenous material.
In FIG. 4 the surface type is indicated on the Y axis. Each dot corresponds to a specific surface modification. Data are expressed as “Integrated Density” average±SD (N=6/surface type). CD31 expression relates the capacity of endothelial cells to adopt a physiologic phenotype while growing on a given substrate. An important variability is observed in terms of CD31 expression by HAEC according to the surface modification of the nitinol disks.
The effect of different peptides, belonging to the different groups, were tested in batches following the same protocol as in FIG. 6. Different peptides from each group were tested in batches and the effect of individual peptides was repeatedly assessed in separate experiments. Data from all experiments were obtained by computer-assisted analysis of images of the disk side covered with endothelial cells, captured in the blue, green and red channel of an inverted fluorescence microscope. The functional score of the peptides belonging to the different groups was calculated by multiplying the number of cells (as detected by the number of blue, Dapi+ nuclei) for the integrated density of CD31 expression (red signal provided by the binding of a mouse anti-human CD31 monoclonal antibody, clone 9G11, conjugated allophycocyanin) and their product being divided for the integrated density of the F-actin polymerization (Phalloidin coupled to a green fluorochrome).
The same protocol as in Example 1 was followed, using peptides according to the invention (SP547, SP548 SP745, SP1374, SP1072, SP1070, SP1071, SP1379 and SP1383) as defined above and the prior art peptide P8RI of sequence KWPALFVR (SEQ ID NO: 52).
The “CD31/Actin” score, resulting from the integrated density of CD31 immunostaining signal divided by the signal of phalloidin, which binds to the polymerized F-actin of the cytoskeleton, has been used to identify the physiological/non-stressed character of the arterial endothelial cells growing onto the surface of experimental disks placed at the bottom of culture wells. […]

[2] = immobilized peptide, in vivo; cited from earlier work
CD31 = conditions: soluble peptide; cited from earlier work
endothelial cells = conditions: immobilized peptide, cited from earlier work

## Ac-K(N3)-PEG4-PRVTLDKKEAIQGGIVRVNSSVPEEK-CONH2 (Ac-[Lys(N3)][PEG4′]PRVTLDKKEAIQGGIVRVNSSVPEEK-NH2) [SP1071]
[1]
  CD31/Actin score: significantly higher

## KWPALFVR [P8RI, prior art CD31-mimetic octa-peptide]
[2]
  integration of endovascular devices: enhances the integration of endovascular devices in vivo
CD31
  action on CD31: acts like a CD31 agonist
Endothelial cells; in vitro
  adhesion of endothelial cells: increases the adhesion of endothelial cells in vitro
Endothelial cells
  blood element reaction: reduces the blood element reaction

## [Ac-K(N3)-(Ttds)4-PRVTLDKKEAIQGGIVRVNSSVPEEK-Ttds-K^#(CH2CO)-CONH2]-[QHQMLFYhC^#DDVLFYNISSMK-CONH2] (chain 1 {Ac-Lys(N3)-Ttds-Ttds-Ttds-Ttds}-PRVTLDKKEAIQGGIVRVNSSVPEEK-{Ttds-K(CH2CO)-NH2}; chain 2 QHQMLFY[hCys]DDVLFYNISSMK-NH2; also: thioether at chain B 8 to a chain's C-terminus) [SP1383]
[1]
  CD31/Actin score: significantly higher

## [^#CH2CONH2GTYKSTVIVNNKEKTTAEYQ-(Ttds)4-K(N3)-NH2]-[QHQMLFYhC^#DDVLFYNISSMK-CONH2] (chain 1 GTYKSTVIVNNKEKTTAEYQ-{Ttds-Ttds-Ttds-Ttds-Lys(N3)-NH2}; chain 2 QHQMLFY[hCys]DDVLFYNISSMK-NH2; not fully specified (N-terminus); also: thioether at chain B 8 to a chain's N-terminus) [SP1379]
[1]
  CD31/Actin score: significantly higher

## Ac-YKDDVLFYNISSMKST-GGSGGSGG-K(N3)-NH2 (Ac-YKDDVLFYNISSMKSTGGSGGSGG[Lys(N3)]-NH2; SMILES CC[C@H](C)[C@H](NC(=O)[C@H](CC(N)=O)NC(=O)[C@H](Cc1ccc(O)cc1)NC(=O)[C@H](Cc1ccccc1)NC(=O)[C@H](CC(C)C)NC(=O)[C@@H](NC(=O)[C@H](CC(=O)O)NC(=O)[C@H](CC(=O)O)NC(=O)[C@H](CCCCN)NC(=O)[C@H](Cc1ccc(O)cc1)NC(C)=O)C(C)C)C(=O)N[C@@H](CO)C(=O)N[C@@H](CO)C(=O)N[C@@H](CCSC)C(=O)N[C@@H](CCCCN)C(=O)N[C@@H](CO)C(=O)N[C@H](C(=O)NCC(=O)NCC(=O)N[C@@H](CO)C(=O)NCC(=O)NCC(=O)N[C@@H](CO)C(=O)NCC(=O)NCC(=O)N[C@@H](CCCCN=[N+]=[N-])C(N)=O)[C@@H](C)O) [SP548]
[1]
  CD31/Actin score: equivalent to those of sections coated by other peptides according to the invention

## Ac-K(N3)-(Ttds)4-PRhCTLDKKEAIQGGIVRVNhCSVPEEK-CONH2 ({Ac-Lys(N3)-Ttds-Ttds-Ttds-Ttds}-PR[hCys]TLDKKEAIQGGIVRVN[hCys]SVPEEK-NH2; disulfide 3-20) [SP1380]
[1]
  CD31 expression, Integrated Density: evident positive effect in terms of CD31 expression
  ratio between CD31 and F-actin expression: higher CD31/actin ratio

## Ac-K(N3)-GGSGGSGG-YKDDVLFYNISSMKST-NH2 (Ac-[Lys(N3)]GGSGGSGGYKDDVLFYNISSMKST-NH2; SMILES CC[C@H](C)[C@H](NC(=O)[C@H](CC(N)=O)NC(=O)[C@H](Cc1ccc(O)cc1)NC(=O)[C@H](Cc1ccccc1)NC(=O)[C@H](CC(C)C)NC(=O)[C@@H](NC(=O)[C@H](CC(=O)O)NC(=O)[C@H](CC(=O)O)NC(=O)[C@H](CCCCN)NC(=O)[C@H](Cc1ccc(O)cc1)NC(=O)CNC(=O)CNC(=O)[C@H](CO)NC(=O)CNC(=O)CNC(=O)[C@H](CO)NC(=O)CNC(=O)CNC(=O)[C@H](CCCCN=[N+]=[N-])NC(C)=O)C(C)C)C(=O)N[C@@H](CO)C(=O)N[C@@H](CO)C(=O)N[C@@H](CCSC)C(=O)N[C@@H](CCCCN)C(=O)N[C@@H](CO)C(=O)N[C@H](C(N)=O)[C@@H](C)O) [SP547]
[1]
  CD31/Actin score: equivalent to those of sections coated by other peptides according to the invention

## RDQNFVILEFP-PEG4-K(N3)-NH2 [SP1070]
[1]
  CD31/Actin score: significantly higher
  F-actin expression (cellular stress), Integrated Density: does not show an influence on the cellular stress

## SHQMLFYKDDVLFYNISSS-GGSGGSGG-K(N3)-CONH2 (SHQMLFYKDDVLFYNISSSGGSGGSGG[Lys(N3)]-NH2; N-terminus assumed; SMILES CC[C@H](C)[C@H](NC(=O)[C@H](CC(N)=O)NC(=O)[C@H](Cc1ccc(O)cc1)NC(=O)[C@H](Cc1ccccc1)NC(=O)[C@H](CC(C)C)NC(=O)[C@@H](NC(=O)[C@H](CC(=O)O)NC(=O)[C@H](CC(=O)O)NC(=O)[C@H](CCCCN)NC(=O)[C@H](Cc1ccc(O)cc1)NC(=O)[C@H](Cc1ccccc1)NC(=O)[C@H](CC(C)C)NC(=O)[C@H](CCSC)NC(=O)[C@H](CCC(N)=O)NC(=O)[C@H](Cc1c[nH]cn1)NC(=O)[C@@H](N)CO)C(C)C)C(=O)N[C@@H](CO)C(=O)N[C@@H](CO)C(=O)N[C@@H](CO)C(=O)NCC(=O)NCC(=O)N[C@@H](CO)C(=O)NCC(=O)NCC(=O)N[C@@H](CO)C(=O)NCC(=O)NCC(=O)N[C@@H](CCCCN=[N+]=[N-])C(N)=O) [SP745]
[1]
  CD31/Actin score: significantly higher

## hCHQMLFYKDDVLFYNISShCK-Ttds-Ttds-Ttds-Ttds-K(N3)-CONH2 ([hCys]HQMLFYKDDVLFYNISS[hCys]K-{Ttds-Ttds-Ttds-Ttds-Lys(N3)-NH2}; cysteine pairing not given here) [SP1374]
[1]
  CD31/Actin score: significantly higher
  F-actin expression (cellular stress), Integrated Density: low cellular stress (low actin expression)
  ratio between CD31 and F-actin expression: higher CD31/actin ratio
[1]; listed as 1374
  CD31 expression, Integrated Density: evident positive effect in terms of CD31 expression
[1]; listed as SP 1374
  CD31 expression, Integrated Density: consistent functional endothelial phenotype (high CD31 expression)

From US20250281679A1, “BIOMIMETIC COATING FOR ENDOVASCULAR STENT” (INSERM (Institut National de la Santé et de la Recherche …, priority 2021, published 2025)
